Results: ChEMBL document CHEMBL1149512, “3-Aryl-4-hydroxyquinolin-2(1H)-one derivatives as type I fatty acid synthase inhibitors” (Bioorg Med Chem Lett, 2006)

These molecules were tested against Fatty acid synthase (Homo sapiens, UniProt P49327) (assay: Inhibition of human FAS).
Sequence of Fatty acid synthase (Homo sapiens, UniProt P49327) (P49327 whole entry): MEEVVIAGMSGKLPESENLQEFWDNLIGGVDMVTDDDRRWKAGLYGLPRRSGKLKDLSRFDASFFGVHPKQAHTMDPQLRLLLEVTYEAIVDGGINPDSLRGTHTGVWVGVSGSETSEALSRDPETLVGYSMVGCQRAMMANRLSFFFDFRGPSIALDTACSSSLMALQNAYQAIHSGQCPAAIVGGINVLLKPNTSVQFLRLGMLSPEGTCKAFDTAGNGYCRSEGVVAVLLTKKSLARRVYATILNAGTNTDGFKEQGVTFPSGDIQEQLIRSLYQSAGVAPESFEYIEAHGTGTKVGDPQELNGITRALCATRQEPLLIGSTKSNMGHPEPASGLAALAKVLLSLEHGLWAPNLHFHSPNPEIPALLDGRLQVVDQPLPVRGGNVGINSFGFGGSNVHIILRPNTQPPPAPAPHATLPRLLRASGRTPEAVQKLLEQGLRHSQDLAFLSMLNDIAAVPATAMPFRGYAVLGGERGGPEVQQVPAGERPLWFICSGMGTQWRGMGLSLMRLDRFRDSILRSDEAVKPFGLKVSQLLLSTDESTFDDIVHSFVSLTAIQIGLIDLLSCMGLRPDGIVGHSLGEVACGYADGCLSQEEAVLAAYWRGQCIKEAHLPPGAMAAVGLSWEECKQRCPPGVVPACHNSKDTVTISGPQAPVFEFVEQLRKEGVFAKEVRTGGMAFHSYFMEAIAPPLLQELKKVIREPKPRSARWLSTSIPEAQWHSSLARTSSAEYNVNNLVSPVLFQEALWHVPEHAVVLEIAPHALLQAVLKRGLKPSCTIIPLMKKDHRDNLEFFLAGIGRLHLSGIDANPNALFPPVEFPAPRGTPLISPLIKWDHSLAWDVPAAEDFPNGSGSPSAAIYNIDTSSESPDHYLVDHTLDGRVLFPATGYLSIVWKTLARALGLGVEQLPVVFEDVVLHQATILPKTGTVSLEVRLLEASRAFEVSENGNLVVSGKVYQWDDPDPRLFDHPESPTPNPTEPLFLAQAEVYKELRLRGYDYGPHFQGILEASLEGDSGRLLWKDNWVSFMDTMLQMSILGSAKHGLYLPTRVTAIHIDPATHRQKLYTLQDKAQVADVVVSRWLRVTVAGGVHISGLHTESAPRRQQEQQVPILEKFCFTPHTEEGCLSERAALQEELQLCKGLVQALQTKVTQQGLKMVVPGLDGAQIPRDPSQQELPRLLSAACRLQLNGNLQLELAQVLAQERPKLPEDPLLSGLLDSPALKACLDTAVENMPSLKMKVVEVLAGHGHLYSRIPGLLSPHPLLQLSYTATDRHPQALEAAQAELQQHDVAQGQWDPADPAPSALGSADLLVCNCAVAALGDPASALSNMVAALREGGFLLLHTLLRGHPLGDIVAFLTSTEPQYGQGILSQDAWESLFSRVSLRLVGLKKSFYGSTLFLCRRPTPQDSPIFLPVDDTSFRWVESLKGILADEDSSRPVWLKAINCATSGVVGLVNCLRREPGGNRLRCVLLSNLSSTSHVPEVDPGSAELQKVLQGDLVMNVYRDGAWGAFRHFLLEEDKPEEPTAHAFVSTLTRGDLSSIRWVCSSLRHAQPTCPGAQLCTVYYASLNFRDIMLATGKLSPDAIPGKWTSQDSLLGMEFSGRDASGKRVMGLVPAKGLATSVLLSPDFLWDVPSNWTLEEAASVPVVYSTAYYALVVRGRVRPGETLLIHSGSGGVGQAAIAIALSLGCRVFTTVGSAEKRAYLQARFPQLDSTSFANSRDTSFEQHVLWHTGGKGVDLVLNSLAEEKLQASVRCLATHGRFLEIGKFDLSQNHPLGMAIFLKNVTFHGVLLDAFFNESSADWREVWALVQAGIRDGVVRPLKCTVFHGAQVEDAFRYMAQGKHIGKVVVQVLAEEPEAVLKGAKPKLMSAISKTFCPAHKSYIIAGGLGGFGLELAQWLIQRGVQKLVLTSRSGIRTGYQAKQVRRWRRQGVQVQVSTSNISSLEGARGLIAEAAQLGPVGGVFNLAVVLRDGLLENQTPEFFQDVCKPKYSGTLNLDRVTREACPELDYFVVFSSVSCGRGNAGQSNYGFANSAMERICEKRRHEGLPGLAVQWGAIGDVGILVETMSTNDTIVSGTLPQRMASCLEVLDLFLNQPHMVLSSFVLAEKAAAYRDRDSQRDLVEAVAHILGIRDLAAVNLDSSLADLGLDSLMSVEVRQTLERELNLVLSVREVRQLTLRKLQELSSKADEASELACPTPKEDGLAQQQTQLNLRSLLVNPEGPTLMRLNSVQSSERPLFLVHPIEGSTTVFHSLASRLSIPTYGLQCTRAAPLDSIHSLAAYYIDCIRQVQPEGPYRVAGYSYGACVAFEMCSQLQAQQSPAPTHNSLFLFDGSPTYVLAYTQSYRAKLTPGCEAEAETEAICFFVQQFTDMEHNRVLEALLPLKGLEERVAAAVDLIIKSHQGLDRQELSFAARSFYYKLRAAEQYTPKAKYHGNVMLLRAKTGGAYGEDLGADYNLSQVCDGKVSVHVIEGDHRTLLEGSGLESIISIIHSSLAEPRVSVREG

Row | Structure (SMILES) | IC50 [µM]
1 | CS(=O)(=O)c1ccc2[nH]c(=O)c(-c3ccccc3)c(O)c2c1 | > 15
2 | O=c1[nH]c2ccc(S(=O)(=O)C(F)(F)F)cc2c(O)c1-c1ccccc1 | > 15
3 | N#Cc1cc(Cl)c2[nH]c(=O)c(-c3ccccc3)c(O)c2c1 | 0.402
4 | O=c1[nH]c2ccc(C(F)(F)F)cc2c(O)c1-c1ccccc1 | > 15
5 | COc1ccc(CNc2c(-c3ccccc3)c(=O)[nH]c3cc(Cl)c(C#N)cc23)cc1 | > 15
6 | N#Cc1cc2c(C#N)c(-c3ccccc3)c(=O)[nH]c2cc1Cl | > 15
7 | N#Cc1ccc2[nH]c(=O)c(-c3ccccc3)c(O)c2c1 | 1.29
8 | N#Cc1cc2c(O)c(-c3ccccc3)c(=O)[nH]c2cc1Cl | 0.136
9 | N#Cc1cc2c(O)c(-c3cccc(-c4ccc(F)c(F)c4)c3)c(=O)[nH]c2cc1Cl | 0.068
10 | COc1ccccc1-c1cccc(-c2c(O)c3cc(C#N)c(Cl)cc3[nH]c2=O)c1 | 0.019
11 | Cn1cc(-c2cccc(-c3c(O)c4cc(C#N)c(Cl)cc4[nH]c3=O)c2)cn1 | 0.734
12 | N#Cc1cc2c(O)c(-c3cccc(-c4ccc(F)cc4)c3)c(=O)[nH]c2cc1Cl | 0.054
13 | N#Cc1cc2c(NCc3ccccc3)c(-c3ccccc3)c(=O)[nH]c2cc1Cl | > 15
14 | N#Cc1cc2c(Cl)c(-c3ccccc3)c(=O)[nH]c2cc1Cl | > 15
15 | CS(=O)(=O)c1cccc(-c2c(O)c3cc(C#N)c(Cl)cc3[nH]c2=O)c1 | 4.16
16 | N#Cc1cc2c(O)c(-c3cccc(-c4cc(F)cc(F)c4)c3)c(=O)[nH]c2cc1Cl | 0.728
17 | N#Cc1cc2c(O)c(-c3cccc(-c4ccccc4)c3)c(=O)[nH]c2cc1Cl | 0.052
18 | N#Cc1cc2c(O)c(-c3cccc(-c4cccnc4)c3)c(=O)[nH]c2cc1Cl | 0.194
19 | N#Cc1cc2c(O)c(-c3cccc(-c4csc5ccccc45)c3)c(=O)[nH]c2cc1Cl | 0.101
20 | O=c1[nH]c2cc(Cl)c([N+](=O)[O-])cc2c(O)c1-c1ccccc1 | 0.207
21 | N#Cc1cc2c(O)c(-c3cccc(-c4ccc5ccccc5c4)c3)c(=O)[nH]c2cc1Cl | 0.127
22 | N#Cc1cc2c(N)c(-c3ccccc3)c(O)nc2cc1Cl | > 15
23 | O=c1[nH]c2ccc([N+](=O)[O-])cc2c(O)c1-c1ccccc1 | 1.4
24 | N#Cc1cc2c(Br)c(-c3ccccc3)c(O)nc2cc1Cl | > 15

These molecules were tested against Fatty acid synthase (Rattus norvegicus, UniProt P12785) (assay: Inhibition of rat FAS).
Sequence of Fatty acid synthase (Rattus norvegicus, UniProt P12785) (P12785 whole entry): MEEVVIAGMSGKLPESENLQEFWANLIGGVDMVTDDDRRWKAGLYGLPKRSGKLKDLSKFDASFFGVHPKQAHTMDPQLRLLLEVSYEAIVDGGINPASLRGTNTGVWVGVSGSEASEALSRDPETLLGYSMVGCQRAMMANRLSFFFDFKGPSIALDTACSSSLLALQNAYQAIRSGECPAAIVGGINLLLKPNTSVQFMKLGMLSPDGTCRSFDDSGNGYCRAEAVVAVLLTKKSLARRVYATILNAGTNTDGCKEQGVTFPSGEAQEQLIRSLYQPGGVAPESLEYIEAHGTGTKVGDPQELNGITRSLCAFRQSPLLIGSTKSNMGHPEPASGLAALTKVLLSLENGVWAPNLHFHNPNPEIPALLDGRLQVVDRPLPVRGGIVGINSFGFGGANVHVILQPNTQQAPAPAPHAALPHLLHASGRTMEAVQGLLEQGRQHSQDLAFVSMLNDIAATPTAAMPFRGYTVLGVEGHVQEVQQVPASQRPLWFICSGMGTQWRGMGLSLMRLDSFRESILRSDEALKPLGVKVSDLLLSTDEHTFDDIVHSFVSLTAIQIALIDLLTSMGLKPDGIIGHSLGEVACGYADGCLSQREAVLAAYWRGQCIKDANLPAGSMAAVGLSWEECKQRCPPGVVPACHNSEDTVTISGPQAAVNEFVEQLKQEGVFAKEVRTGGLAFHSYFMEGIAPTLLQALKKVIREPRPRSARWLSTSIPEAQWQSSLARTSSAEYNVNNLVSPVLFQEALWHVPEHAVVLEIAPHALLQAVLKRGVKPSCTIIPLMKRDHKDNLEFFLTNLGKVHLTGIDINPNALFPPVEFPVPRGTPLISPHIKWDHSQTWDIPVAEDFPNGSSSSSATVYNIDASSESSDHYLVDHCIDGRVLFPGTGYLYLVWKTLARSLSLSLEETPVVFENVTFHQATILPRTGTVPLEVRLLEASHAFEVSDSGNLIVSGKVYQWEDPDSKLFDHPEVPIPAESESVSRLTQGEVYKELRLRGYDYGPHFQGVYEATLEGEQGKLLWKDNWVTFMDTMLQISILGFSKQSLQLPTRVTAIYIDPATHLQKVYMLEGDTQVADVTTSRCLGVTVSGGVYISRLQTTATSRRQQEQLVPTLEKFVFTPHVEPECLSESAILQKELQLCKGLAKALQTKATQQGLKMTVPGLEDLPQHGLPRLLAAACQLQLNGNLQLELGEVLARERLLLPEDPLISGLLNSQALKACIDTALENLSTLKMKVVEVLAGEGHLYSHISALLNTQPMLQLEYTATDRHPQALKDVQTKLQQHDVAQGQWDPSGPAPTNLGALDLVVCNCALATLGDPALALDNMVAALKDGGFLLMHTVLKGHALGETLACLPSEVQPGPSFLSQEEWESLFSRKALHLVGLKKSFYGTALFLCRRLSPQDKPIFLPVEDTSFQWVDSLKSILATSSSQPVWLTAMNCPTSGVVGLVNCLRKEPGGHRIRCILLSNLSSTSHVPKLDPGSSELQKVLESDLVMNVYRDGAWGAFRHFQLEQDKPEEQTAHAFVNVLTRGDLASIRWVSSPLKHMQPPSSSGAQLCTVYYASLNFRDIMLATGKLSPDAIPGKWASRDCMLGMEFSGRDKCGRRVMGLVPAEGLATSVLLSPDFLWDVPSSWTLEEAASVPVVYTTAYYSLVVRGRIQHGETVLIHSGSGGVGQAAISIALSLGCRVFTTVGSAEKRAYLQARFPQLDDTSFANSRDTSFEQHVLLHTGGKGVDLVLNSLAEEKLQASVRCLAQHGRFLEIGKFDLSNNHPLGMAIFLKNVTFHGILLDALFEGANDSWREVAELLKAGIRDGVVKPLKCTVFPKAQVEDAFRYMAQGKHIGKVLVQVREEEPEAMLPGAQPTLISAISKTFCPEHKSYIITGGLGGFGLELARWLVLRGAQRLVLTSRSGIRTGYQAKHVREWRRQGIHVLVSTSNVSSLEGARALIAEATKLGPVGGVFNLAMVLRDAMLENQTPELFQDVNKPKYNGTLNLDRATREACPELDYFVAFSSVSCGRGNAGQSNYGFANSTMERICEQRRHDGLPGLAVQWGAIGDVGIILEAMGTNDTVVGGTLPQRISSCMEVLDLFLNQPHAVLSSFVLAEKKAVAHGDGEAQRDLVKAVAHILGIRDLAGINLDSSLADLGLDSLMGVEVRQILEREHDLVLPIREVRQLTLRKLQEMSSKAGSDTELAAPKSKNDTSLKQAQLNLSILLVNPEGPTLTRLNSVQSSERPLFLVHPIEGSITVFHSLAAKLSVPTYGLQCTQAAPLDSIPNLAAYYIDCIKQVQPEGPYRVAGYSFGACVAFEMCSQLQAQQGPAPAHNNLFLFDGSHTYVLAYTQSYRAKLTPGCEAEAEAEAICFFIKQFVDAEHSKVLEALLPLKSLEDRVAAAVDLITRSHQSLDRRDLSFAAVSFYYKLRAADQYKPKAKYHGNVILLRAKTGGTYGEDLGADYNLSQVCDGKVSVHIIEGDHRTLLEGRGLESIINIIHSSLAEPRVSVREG

Row | Structure (SMILES) | IC50 [µM]
25 | CS(=O)(=O)c1ccc2[nH]c(=O)c(-c3ccccc3)c(O)c2c1 | > 15
26 | O=c1[nH]c2ccc(S(=O)(=O)C(F)(F)F)cc2c(O)c1-c1ccccc1 | > 15
27 | O=C(O)c1ccc2[nH]c(=O)c(-c3ccccc3)c(O)c2c1 | > 15
28 | O=c1[nH]c2ccc(C(F)(F)F)cc2c(O)c1-c1ccccc1 | > 15
29 | O=c1[nH]c2cc(Cl)c([N+](=O)[O-])cc2c(O)c1-c1ccc(F)cc1F | 0.173
30 | O=c1[nH]c2cc(F)c([N+](=O)[O-])cc2c(O)c1-c1ccccc1 | 0.05
31 | O=c1[nH]c2cc(Cl)c([N+](=O)[O-])cc2c(O)c1-c1nnn[nH]1 | 2.6
32 | O=c1[nH]c2cc(Cl)c([N+](=O)[O-])cc2c(O)c1-c1ccc2ccccc2c1 | 6
33 | Cc1cc(-c2c(O)c3cc([N+](=O)[O-])c(Cl)cc3[nH]c2=O)on1 | 3.4
34 | O=c1[nH]c2cc(Cl)c([N+](=O)[O-])cc2c(O)c1-c1cc(Cl)cc(Cl)c1 | 0.134
35 | O=c1[nH]c2cc(Cl)c([N+](=O)[O-])cc2c(O)c1-c1cc(F)cc(F)c1 | 0.172
36 | O=c1[nH]c2ccccc2c(O)c1-c1ccccc1 | > 15
37 | O=c1[nH]c2c([N+](=O)[O-])cccc2c(O)c1-c1ccccc1 | 3
38 | O=c1cc(O)c2cc([N+](=O)[O-])ccc2[nH]1 | > 15
39 | O=c1[nH]c2cc(Cl)c([N+](=O)[O-])cc2c(O)c1-c1cccs1 | 0.7
40 | O=c1[nH]c2cc(Cl)c([N+](=O)[O-])cc2c(O)c1-c1ccc(OCc2ccccc2)cc1 | 0.086
41 | O=c1[nH]c2cc(Cl)c([N+](=O)[O-])cc2c(O)c1-c1ccc(-c2ccccc2)cc1 | 0.122
42 | O=c1[nH]c2cc(Cl)c([N+](=O)[O-])cc2c(O)c1-c1ccccc1 | 0.073
43 | O=c1[nH]c2ccc([N+](=O)[O-])cc2c(O)c1-c1ccccc1 | 0.55
44 | O=c1[nH]c2cc(Cl)c([N+](=O)[O-])cc2c(O)c1-c1ccc(Cl)cc1Cl | 0.443
